Measured values taken from patent publication US11000033B2, “Ketone or oxime compound, and herbicide” (NISSAN CHEMICAL CORPORATION, priority 2014, dated 2021).

Experiments:
Assay type in all cases: in vivo
Setaria viridis = experiment: Test Example 4: herbicidal effect by soil treatment (symbol G); settings: application herbicide amount 320 g/ha
How it was run: (§1)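 Seeds were sown in sterilized diluvial soil, covered with about 1.5 cm of soil, and the soil surface was sprayed with a water-diluted emulsion of the compound at a predetermined rate. Plants grew in a greenhouse at 25° C. to 30° C.; effects were scored visually 3 weeks after application.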

Apera spica-venti = experiment: Test Example 5: herbicidal effect by foliage application, plastic box (symbol L); settings: 320 g/ha, 3 weeks after application
How it was run: (§2)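 Leaf-applied emulsion, water-diluted to a preset herbicide dose, on two-week-old seedlings raised in a 25° C. to 30° C. greenhouse; injury rated at 3 weeks using earlier criteria.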

Amaranthus retroflexus = experiment: Test Example 5: herbicidal effect by foliage application, plastic box (symbol N); settings: 320 g/ha, 3 weeks after application
How it was run: as §2

rapeseed = experiment: Test Example 5: effect on crop by foliage application, plastic box (symbol g); settings: 320 g/ha, 3 weeks after application
How it was run: (§3)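 Greenhouse culture at 25° C. to 30° C. followed spot-like sowing into sterilized diluvial soil, with seed covered by roughly 1.5 cm of soil.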

Leptochloa chinensis = experiment: Test Example 3: herbicidal effect by foliage application, Wagner pot (symbol D); settings: application herbicide amount 320 g/ha
How it was run: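 Scoring took place 3 weeks after application, using fixed criteria. Plants had been raised from seed for 14 days at 25 to 30 °C in submerged alluvial soil before a diluted emulsion of the test compound was sprayed uniformly on the leaves.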

Chenopodium album [1] = experiment: Test Example 5: herbicidal effect by foliage application, plastic box (symbol O); settings: 320 g/ha, 3 weeks after application
How it was run: as §2

[2] = tested on: Echinochloa oryzacola Vasing.; experiment: Test Example 2: herbicidal activity, application during weed generation in submerged conditions (symbol A); settings: Table 23; application herbicide amount 320 g/ha; grade 0-5 by criteria of Test Example 1
How it was run: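 Read-out: herbicidal effect on each species rated on a visual scale 3 weeks after treatment. Plants were raised together from seed in flooded alluvial soil (4 cm water) at 25° C. to 30° C. and treated at one to two leaves by water-surface application of diluted emulsion.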

corn = experiment: Test Example 5: effect on crop by foliage application, plastic box (symbol c); settings: 320 g/ha, 3 weeks after application
How it was run: as §3

Chenopodium album [3] = experiment: Test Example 4: herbicidal effect by soil treatment (symbol O); settings: application herbicide amount 320 g/ha
How it was run: as §1

beet = experiment: Test Example 5: effect on crop by foliage application, plastic box (symbol f); settings: 320 g/ha, 3 weeks after application
How it was run: as §3

Galium spurium = experiment: Test Example 5: herbicidal effect by foliage application, plastic box (symbol Q); settings: 320 g/ha, 3 weeks after application
How it was run: as §2

Digitaria ciliaris = experiment: Test Example 4: herbicidal effect by soil treatment (symbol F); settings: application herbicide amount 320 g/ha
How it was run: as §1

Abutilon theophrasti = experiment: Test Example 5: herbicidal effect by foliage application, plastic box (symbol M); settings: 320 g/ha, 3 weeks after application
How it was run: as §2

Monochoria vaginalis = experiment: Test Example 1: herbicidal activity, application before weed generation in submerged conditions (symbol C); settings: application herbicide amount 320 g/ha
How it was run: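 Weed control was rated three weeks after treatment on a 0–5 scale, from 5% or lower up to 90% or more. Pre-emergence water-surface application of diluted emulsion at a predetermined rate was made on the day of sowing, in flooded (4 cm water) pots containing rice seedlings, kept at 25–30 °C under glass.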

soybean = experiment: Test Example 5: effect on crop by foliage application, plastic box (symbol d); settings: 320 g/ha, 3 weeks after application
How it was run: as §3

CCOC(=O)C(C(=O)Cc1ccccc1)C1CC(O)=C(c2c(C)cc(C)cc2C)C1=O (stereo not drawn) [2-011]
G: Setaria viridis, herbicidal effect grade (Setaria viridis): 0 (Herbicidal ratio of 5% or lower (almost no effect))
L: Apera spica-venti, herbicidal effect grade (Apera spica-venti): 0 (Herbicidal ratio of 5% or lower (almost no effect))
N: Amaranthus retroflexus, herbicidal effect grade (Amaranthus retroflexus): 0 (Herbicidal ratio of 5% or lower (almost no effect))
g: rapeseed, effect on crop grade (rapeseed): 0 (Herbicidal ratio of 5% or lower (almost no effect))
herbicidal effect on D (Leptochloa chinensis), grade 0-5 (Leptochloa chinensis): 0 (Herbicidal ratio of 5% or lower (almost no effect))
O: Chenopodium album, herbicidal effect grade (Chenopodium album [1]): 0 (Herbicidal ratio of 5% or lower (almost no effect))
Herbicidal effect grade, A: Echinochloa oryzacola Vasing. [2]: 0 (Herbicidal ratio of 5% or lower (almost no effect))
c: corn, effect on crop grade (corn): 0 (Herbicidal ratio of 5% or lower (almost no effect))
O: Chenopodium album, herbicidal effect grade (Chenopodium album [3]): 0 (Herbicidal ratio of 5% or lower (almost no effect))
f: beet, effect on crop grade (beet): 0 (Herbicidal ratio of 5% or lower (almost no effect))
Q: Galium spurium, herbicidal effect grade (Galium spurium): 0 (Herbicidal ratio of 5% or lower (almost no effect))
F: Digitaria ciliaris, herbicidal effect grade (Digitaria ciliaris): 0 (Herbicidal ratio of 5% or lower (almost no effect))
M: Abutilon theophrasti, herbicidal effect grade (Abutilon theophrasti): 0 (Herbicidal ratio of 5% or lower (almost no effect))
Herbicidal effect grade, C: Monochoria vaginalis (Monochoria vaginalis): 0 (Herbicidal ratio of 5% or lower (almost no effect))
d: soybean, effect on crop grade (soybean): 0 (Herbicidal ratio of 5% or lower (almost no effect))

CCOC(=O)C(CC)(C(C)=O)C1CC(O)=C(c2c(C)cc(C)cc2C)C1=O (stereo not drawn) [2-012]
G: Setaria viridis, herbicidal effect grade (Setaria viridis): 0 (Herbicidal ratio of 5% or lower (almost no effect))
L: Apera spica-venti, herbicidal effect grade (Apera spica-venti): 0 (Herbicidal ratio of 5% or lower (almost no effect))
N: Amaranthus retroflexus, herbicidal effect grade (Amaranthus retroflexus): 0 (Herbicidal ratio of 5% or lower (almost no effect))
g: rapeseed, effect on crop grade (rapeseed): 0 (Herbicidal ratio of 5% or lower (almost no effect))
herbicidal effect on D (Leptochloa chinensis), grade 0-5 (Leptochloa chinensis): 0 (Herbicidal ratio of 5% or lower (almost no effect))
O: Chenopodium album, herbicidal effect grade (Chenopodium album [1]): 0 (Herbicidal ratio of 5% or lower (almost no effect))
Herbicidal effect grade, A: Echinochloa oryzacola Vasing. [2]: 0 (Herbicidal ratio of 5% or lower (almost no effect))
c: corn, effect on crop grade (corn): 0 (Herbicidal ratio of 5% or lower (almost no effect))
O: Chenopodium album, herbicidal effect grade (Chenopodium album [3]): 0 (Herbicidal ratio of 5% or lower (almost no effect))
f: beet, effect on crop grade (beet): 0 (Herbicidal ratio of 5% or lower (almost no effect))
Q: Galium spurium, herbicidal effect grade (Galium spurium): 0 (Herbicidal ratio of 5% or lower (almost no effect))
F: Digitaria ciliaris, herbicidal effect grade (Digitaria ciliaris): 0 (Herbicidal ratio of 5% or lower (almost no effect))
M: Abutilon theophrasti, herbicidal effect grade (Abutilon theophrasti): 0 (Herbicidal ratio of 5% or lower (almost no effect))
Herbicidal effect grade, C: Monochoria vaginalis (Monochoria vaginalis): 0 (Herbicidal ratio of 5% or lower (almost no effect))
d: soybean, effect on crop grade (soybean): 0 (Herbicidal ratio of 5% or lower (almost no effect))

CCOC(=O)C(C(=O)C(C)C)C1CC(O)=C(c2c(C)cc(C)cc2C)C1=O (stereo not drawn) [2-009]
G: Setaria viridis, herbicidal effect grade (Setaria viridis): 0 (Herbicidal ratio of 5% or lower (almost no effect))
L: Apera spica-venti, herbicidal effect grade (Apera spica-venti): 0 (Herbicidal ratio of 5% or lower (almost no effect))
N: Amaranthus retroflexus, herbicidal effect grade (Amaranthus retroflexus): 0 (Herbicidal ratio of 5% or lower (almost no effect))
g: rapeseed, effect on crop grade (rapeseed): 0 (Herbicidal ratio of 5% or lower (almost no effect))
herbicidal effect on D (Leptochloa chinensis), grade 0-5 (Leptochloa chinensis): 0 (Herbicidal ratio of 5% or lower (almost no effect))
O: Chenopodium album, herbicidal effect grade (Chenopodium album [1]): 0 (Herbicidal ratio of 5% or lower (almost no effect))
Herbicidal effect grade, A: Echinochloa oryzacola Vasing. [2]: 0 (Herbicidal ratio of 5% or lower (almost no effect))
c: corn, effect on crop grade (corn): 0 (Herbicidal ratio of 5% or lower (almost no effect))
O: Chenopodium album, herbicidal effect grade (Chenopodium album [3]): 0 (Herbicidal ratio of 5% or lower (almost no effect))
f: beet, effect on crop grade (beet): 0 (Herbicidal ratio of 5% or lower (almost no effect))
Q: Galium spurium, herbicidal effect grade (Galium spurium): 0 (Herbicidal ratio of 5% or lower (almost no effect))
F: Digitaria ciliaris, herbicidal effect grade (Digitaria ciliaris): 2 (Herbicidal ratio of 20% or higher and lower than 40%)
M: Abutilon theophrasti, herbicidal effect grade (Abutilon theophrasti): 0 (Herbicidal ratio of 5% or lower (almost no effect))
Herbicidal effect grade, C: Monochoria vaginalis (Monochoria vaginalis): 0 (Herbicidal ratio of 5% or lower (almost no effect))
d: soybean, effect on crop grade (soybean): 0 (Herbicidal ratio of 5% or lower (almost no effect))

Cc1cc(C)c(C2=C(O)CC(CC(=O)C3CCCCC3)C2=O)c(C)c1 (stereo not drawn) [2-030]
G: Setaria viridis, herbicidal effect grade (Setaria viridis): 5 (Herbicidal ratio of 90% or more (almost completely withered))
L: Apera spica-venti, herbicidal effect grade (Apera spica-venti): 2 (Herbicidal ratio of 20% or higher and lower than 40%)
N: Amaranthus retroflexus, herbicidal effect grade (Amaranthus retroflexus): 0 (Herbicidal ratio of 5% or lower (almost no effect))
g: rapeseed, effect on crop grade (rapeseed): 3 (Herbicidal ratio of 40% or higher and lower than 70%)
herbicidal effect on D (Leptochloa chinensis), grade 0-5 (Leptochloa chinensis): 5 (Herbicidal ratio of 90% or more (almost completely withered))
O: Chenopodium album, herbicidal effect grade (Chenopodium album [1]): 0 (Herbicidal ratio of 5% or lower (almost no effect))
Herbicidal effect grade, A: Echinochloa oryzacola Vasing. [2]: 3 (Herbicidal ratio of 40% or higher and lower than 70%)
c: corn, effect on crop grade (corn): 2 (Herbicidal ratio of 20% or higher and lower than 40%)
O: Chenopodium album, herbicidal effect grade (Chenopodium album [3]): 0 (Herbicidal ratio of 5% or lower (almost no effect))
f: beet, effect on crop grade (beet): 0 (Herbicidal ratio of 5% or lower (almost no effect))
Q: Galium spurium, herbicidal effect grade (Galium spurium): 0 (Herbicidal ratio of 5% or lower (almost no effect))
F: Digitaria ciliaris, herbicidal effect grade (Digitaria ciliaris): 4 (Herbicidal ratio of 70% or higher and lower than 90%)
M: Abutilon theophrasti, herbicidal effect grade (Abutilon theophrasti): 0 (Herbicidal ratio of 5% or lower (almost no effect))
Herbicidal effect grade, C: Monochoria vaginalis (Monochoria vaginalis): 0 (Herbicidal ratio of 5% or lower (almost no effect))
d: soybean, effect on crop grade (soybean): 0 (Herbicidal ratio of 5% or lower (almost no effect))

Cc1cc(C)c(C2=C(O)CC(CC(=O)Cc3ccccc3)C2=O)c(C)c1 (stereo not drawn) [2-015]
G: Setaria viridis, herbicidal effect grade (Setaria viridis): 3 (Herbicidal ratio of 40% or higher and lower than 70%)
L: Apera spica-venti, herbicidal effect grade (Apera spica-venti): 3 (Herbicidal ratio of 40% or higher and lower than 70%)
N: Amaranthus retroflexus, herbicidal effect grade (Amaranthus retroflexus): 0 (Herbicidal ratio of 5% or lower (almost no effect))
g: rapeseed, effect on crop grade (rapeseed): 4 (Herbicidal ratio of 70% or higher and lower than 90%)
herbicidal effect on D (Leptochloa chinensis), grade 0-5 (Leptochloa chinensis): 0 (Herbicidal ratio of 5% or lower (almost no effect))
O: Chenopodium album, herbicidal effect grade (Chenopodium album [1]): 0 (Herbicidal ratio of 5% or lower (almost no effect))
Herbicidal effect grade, A: Echinochloa oryzacola Vasing. [2]: 0 (Herbicidal ratio of 5% or lower (almost no effect))
c: corn, effect on crop grade (corn): 4 (Herbicidal ratio of 70% or higher and lower than 90%)
O: Chenopodium album, herbicidal effect grade (Chenopodium album [3]): 0 (Herbicidal ratio of 5% or lower (almost no effect))
f: beet, effect on crop grade (beet): 0 (Herbicidal ratio of 5% or lower (almost no effect))
Q: Galium spurium, herbicidal effect grade (Galium spurium): 0 (Herbicidal ratio of 5% or lower (almost no effect))
F: Digitaria ciliaris, herbicidal effect grade (Digitaria ciliaris): 3 (Herbicidal ratio of 40% or higher and lower than 70%)
M: Abutilon theophrasti, herbicidal effect grade (Abutilon theophrasti): 1 (Herbicidal ratio of 5% or higher and lower than 20%)
Herbicidal effect grade, C: Monochoria vaginalis (Monochoria vaginalis): 0 (Herbicidal ratio of 5% or lower (almost no effect))
d: soybean, effect on crop grade (soybean): 1 (Herbicidal ratio of 5% or higher and lower than 20%)
